Results published in patent US5010095A, “N-(W-substituted alkyl)-'-(imidazol-4-yl)alkyl)guanidine” (Cedona Pharmaceuticals B.V., priority 1986, dated 1991).
“Also recorded” adds a separate entry of the source. Where two headings read alike, the source gives them in different places.

Columns and labels:
[1] = target: T1, histamine H2 (guinea-pig right atrium) (Cavia porcellus, UniProt P47747); test: Histamine H2-activity, guinea-pig right atrium
T1 construct: from tissue; host or cells: guinea-pig right atrium (isolated organ)
Text: (§1) The values for the H1 -activity given are the mean of at least two experiments in quadruplicate, while the values for the H2 -activity result from at least two experiments in duplicate.
(§2) Guinea-pig right atrium H2
(§3) Ther., 19, 545-550 (1984).

[2] = target: T2, histamine H2 (guinea-pig gastric fundus) (Cavia porcellus, UniProt P47747); test: Histamine H2-activity, acid secretion of the isolated gastric fundus of the guinea-pig
T2 construct: acid secretion of the isolated gastric fundus of the guinea-pig; from tissue; host or cells: guinea-pig gastric fundus (isolated organ)
Text: as §1
(§4) Guinea-pig gastric acid secretion (H2)

[3] = target: T3, histamine H1 (guinea-pig ileum) (Cavia porcellus, UniProt P31389); test: Histamine H1-activity, guinea-pig ileum
T3 construct: from tissue; host or cells: guinea-pig ileum (isolated organ)
Text: as §1

[4] = target: T4, histamine H2 (Cavia porcellus, UniProt P47747); test: Histamine H2-activity, overall discussion (atrium/gastric fundus); design: species or system guinea-pig; details: atrium and fundus; structure-activity discussion
T4 construct: functional chronotropy and acid secretion
Text: as §1, §2, §3, §4

[5] = target: T5, histamine H1 (Cavia porcellus, UniProt P31389); test: Histamine H1-activity, overall discussion (ileum/trachea); design: species or system guinea-pig; details: structure-activity discussion
T5 construct: functional contraction
Procedure: The results of pharmacological tests with said new compounds are summarized in Table A (H1 -activity) and Table B (H2 -activity). The values for the H1 -activity given are the mean of at least two experiments in quadruplicate, while the values for the H2 -activity result from at least two experiments in duplicate.
(§5) Male guinea-pigs (350-500 g) were killed by a blow on the head and the trachea removed. Single segments were cut from the trachea, loaded with 0.4 g and placed in an organ bath (35° C.) containing 120 mM NaCl, 6 mM KCl, 1 mM MgSO4, 2.5 mM CaCl2, 1 mM NaH2 PO4, […] and 6 mM glucose. The organ bath was gassed with oxygen containing 5% CO2. PD2, intrinsic acitivity and antagonistic activity of the test compounds were determined from isotonically recorded, cumulative dose-response curves.

[6] = target: T6, histamine H1 (guinea-pig trachea) (Cavia porcellus, UniProt P31389); test: Histamine H1-activity, guinea-pig trachea; details: for Kb: ± 0,2, mean of at least two experiments in quadruplicate
T6 construct: Single segments were cut from the trachea; from tissue; host or cells: guinea-pig trachea (isolated segments)
Procedure: as §1, §5

[7] = tested on: histamine H2; details: cited from earlier work
[8] = guinea-pig right atrium, ±0,1, at least two experiments in duplicate
[9] = read-out: Histamine H2-activity, α (intrinsic activity), guinea-pig right atrium, at least two experiments in duplicate
[10] = guinea-pig gastric fundus, ±0,2, at least two experiments in duplicate
[11] = read-out: Histamine H2-activity, α (intrinsic activity), guinea-pig gastric fundus, at least two experiments in duplicate
[12] = guinea-pig ileum, ±0,2, mean of at least two experiments in quadruplicate
[13] = guinea pig, read-out: Histamine H2-activity, atrium, α (intrinsic activity)
[14] = guinea pig, read-out: Histamine H2-activity, gastric fundus, α (intrinsic activity)
[15] = gastric fundus, versus compound I

T4 sequence (P47747 whole entry): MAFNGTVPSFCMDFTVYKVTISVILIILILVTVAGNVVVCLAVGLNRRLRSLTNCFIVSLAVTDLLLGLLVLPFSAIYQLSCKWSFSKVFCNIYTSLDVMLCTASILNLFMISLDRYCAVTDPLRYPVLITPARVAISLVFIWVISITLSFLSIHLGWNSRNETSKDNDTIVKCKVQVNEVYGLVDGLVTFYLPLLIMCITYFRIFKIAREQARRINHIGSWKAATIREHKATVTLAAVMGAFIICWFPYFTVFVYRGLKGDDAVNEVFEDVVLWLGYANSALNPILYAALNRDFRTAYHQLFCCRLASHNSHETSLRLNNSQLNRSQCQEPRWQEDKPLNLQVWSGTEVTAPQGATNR
T1 sequence (P47747 whole entry): as above
T2 sequence (P47747 whole entry): as above
T5 sequence (P31389 whole entry): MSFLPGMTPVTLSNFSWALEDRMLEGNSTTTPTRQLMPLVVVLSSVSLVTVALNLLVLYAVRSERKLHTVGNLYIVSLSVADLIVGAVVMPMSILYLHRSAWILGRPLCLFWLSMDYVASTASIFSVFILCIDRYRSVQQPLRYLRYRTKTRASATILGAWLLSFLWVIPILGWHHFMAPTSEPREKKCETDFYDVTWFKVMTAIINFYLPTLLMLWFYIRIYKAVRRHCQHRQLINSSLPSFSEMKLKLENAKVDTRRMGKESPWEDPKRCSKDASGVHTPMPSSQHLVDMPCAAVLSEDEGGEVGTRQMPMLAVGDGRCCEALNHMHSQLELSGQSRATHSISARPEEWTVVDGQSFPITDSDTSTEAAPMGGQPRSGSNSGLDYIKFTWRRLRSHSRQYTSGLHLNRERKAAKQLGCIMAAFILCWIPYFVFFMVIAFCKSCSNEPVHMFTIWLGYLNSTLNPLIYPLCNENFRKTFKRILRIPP
T3 sequence (P31389 whole entry): as above
T6 sequence (P31389 whole entry): as above

Row | Structure (SMILES) | EC50 [1, 8] | Emax [1, 9] | EC50 [2, 10] | Emax [2, 11] | Kb [3, 12] | H2-activity, comparison in words [4] | H1-activity, comparison in words [5] | Kb ([6]; guinea-pig trachea) | also measured
1 | N=C(NCCCc1c[nH]cn1)NCCSC(c1ccccc1)c1ccccc1 [Compound I, N-[2-(diphenylmethylthio)ethyl]-N'-[3-(imidazol-4-yl)propyl] guanidine] | 158 nM | 100% | 794 nM | 100% | 316 nM | – | – | – | H2-activity on the atrium, comparison in words ([1]; guinea-pig right atrium): most potent compounds of this series on the guinea-pig right atrium; decrease in H2-agonism, fundus, versus compound XII ([2]; fundus, extra phenyl group in compound XII): 32 fold
2 | N=C(NCCCc1c[nH]cn1)NCCC(c1ccccc1)c1ccccc1 [Compound IX, N-(3.3-diphenylpropyl)-N'-[3-(imidazol-4-yl)propyl]guanidine] | 20 nM | 100% | – | – | 501 nM | Analogous results | Analogous results; also recorded: almost as potent H1 -antagonists as compound I | – | H2-activity on the atrium, comparison in words ([1]; guinea-pig right atrium): remarkable high potency on the guinea-pig right atrium; also recorded: almost as potent as impromidine on the atrium; also recorded: most potent compounds of this series on the guinea-pig right atrium
3 | N=C(NCCCc1c[nH]cn1)NCCSC(c1ccccc1)c1ccc(F)cc1 (stereo not drawn) [Compound VI, N-[2-(α-phenyl-4-fluorobenzylthio)ethyl]-N'-[3-(imidazol-4-yl)propyl]guanidine] | 1260 nM | 80% | 3160 nM | 40% | 251 nM | strong decrease in H2 -activity | only little or no effect at all on the H1 -antagonism | 158 nM | –
4 | Cc1ccccc1C(SCCNC(=N)NCCCc1c[nH]cn1)c1ccccn1 (stereo not drawn) [Compound VII, N-[3-(imidazol-4-yl)propyl]-N'-(2-[2-methyl-alpha-(2-pyridyl)benzylthio]ethyl)guanidine] | 1260 nM | 80% | – | – | 398 nM | almost as potent H2 -antagonist as the para methyl and fluoro analogues | almost as potent H1 -antagonists as compound I | 1000 nM | –
5 | Cc1ccc(C(SCCNC(=N)NCCc2c[nH]cn2)c2ccccc2)cc1 (stereo not drawn) [Compound V] | 100000 nM | 0% | 100000 nM | 0% | 251 nM | Analogous results; also recorded: strong decrease in H2 -activity | Analogous results; also recorded: only little or no effect at all on the H1 -antagonism | – | –
6 | N=C(NCCCc1c[nH]cn1)NCCN(Cc1ccccc1)c1ccccc1 [Compound XI, N-[2-(N'-benzyl-N'-phenylamino)ethyl]-N"-[3-(imidazol-4-yl)propyl]guanidine] | 398 nM | 100% | 316 nM | 70% | 25.1 nM | – | slightly more potent H1 -antagonist than the oxygen analogue compound II; also recorded: most potent H1 -antagonists of this series of impromidine analogues | 15.8 nM | potency relative to histamine on the atrium, in words ([1]; atrium): about twice as potent as histamine on the atrium; activity relative to impromidine, atrium ([1]; atrium, % of the activity of impromidine): about 4%; activity relative to impromidine, gastric fundus ([2]; gastric fundus, % of the activity of impromidine): about 1%; activity relative to histamine, gastric fundus ([2]; gastric fundus, times the activity of histamine): 10 times
7 | N=C(NCC=C(c1ccccc1)c1ccccc1)NCCCc1c[nH]cn1 [Compound X] | 100 nM | 100% | 2510 nM | 90% | 200 nM | – | almost as potent H1 -antagonists as compound I | 631 nM | decrease in H2-activity, atrium, on introduction of a double bond ([1]; atrium, introduction of a double bond (saturated analogue: IX)): 4 fold; H2-activity on the atrium, comparison in words ([1]; guinea-pig right atrium): most potent compounds of this series on the guinea-pig right atrium
8 | NCCc1c[nH]cn1 [Histamine, reference compound] | – | – | – | – | – | – | – | – | Emax [1, 13]: 100%; Emax [2, 14]: 100%
9 | N=C(NCCSC(c1ccccc1)c1ccccc1)NCCc1c[nH]cn1 [II, N-[2-(diphenylmethylthio)ethyl]-N'-[2-imidazol-4-yl)ethyl guanidine] | – | – | – | – | – | marked decrease in H2 -activity, both on the atrium and on the fundus | no effect on the H1 -activity | – | EC50 [1]: 15800 nM; Emax [1, 13]: 80%; EC50 [2]: 12600 nM; Emax [2, 14]: 50%; Kb [3]: 398 nM
10 | N=C(NCCCc1c[nH]cn1)NCCOC(c1ccccc1)c1ccccc1 [III, N-[2-(diphenylmethoxy)ethyl]-N'-[3-(imidazol-4-yl)propyl] guanidine] | 3160 nM | 90% | 1580 nM | 40% | 31.6 nM | – | most potent H1 -antagonists of this series of impromidine analogues | 25.1 nM | H1 potency relative to the starting compound, trachea ([6]; guinea-pig trachea, versus sulphur starting compound (I)): 25 times; decrease in H2-agonism, atrium, versus compound I ([1]; atrium, sulphur of compound I replaced by oxygen): 20 fold; change in intrinsic activity on the gastric fundus, in words [2, 15]: remarkable decrease in intrinsic activity; change in pD2 on the gastric fundus, in words [2, 15]: less pronounced; H1 potency relative to the starting compound, ileum ([3]; guinea-pig ileum, versus sulphur starting compound (I)): ten times as potent as the starting compound
11 | Cc1ccc(C(SCCNC(=N)NCCCc2c[nH]cn2)c2ccccc2)cc1 (stereo not drawn) [IV, N-[3-(imidazol-4-yl)propyl]-N'-2-[α-phenyl-4-methylbenzylthio]ethyl guanidine] | 1260 nM | 80% | – | – | 398 nM | strong decrease in H2 -activity | only little or no effect at all on the H1 -antagonism | – | –
12 | Cc1[nH]cnc1CSCCNC(=N)NCCCc1c[nH]cn1 [Impromidine, N-[2-(5-methylimidazol-4-ylmethylthio)ethyl]-N'-[3-(imidazol-4-yl)propyl]guanidine, reference compound] | – | – | – | – | – | – | – | – | potency relative to histamine ([7]; dependent on the used test system, Proc. VIIIth Internat. Symp. Med. Chem. Uppsala 1985): 5-800 times; stimulation of gastric acid secretion, in words ([7]; drawback for clinical use): relatively high potency in stimulating the gastric acid secretion; histamine H2-agonist character, in words ([7]; literature): specific and the most potent histamine H2 -agonist; also recorded: either behaves like a partial or like a complete agonist; EC50 [2]: 3.16 nM; Emax [2, 14]: 100%; Kb [3]: 3160 nM
13 | N=C(NCCc1c[nH]cn1)NCCC(c1ccccc1)c1ccccc1 [VIII, N-(3.3-diphenylpropyl)-N'-[2-(imidazol-4-yl)ethyl] guanidine] | 2510 nM | 90% | 10000 nM | 0% | 631 nM | – | almost as potent H1 -antagonists as compound I | – | H2-activity on the atrium, comparison in words ([1]; guinea-pig right atrium): remarkable high potency on the guinea-pig right atrium
14 | NC(=NCCCc1c[nH]cn1)NCCSCc1ccccc1 [XII, reference compound] | 63.1 nM | 100% | 25.1 nM | 100% | 3160 nM | – | no change in H1 -activity | – | decrease in H2-activity, atrium, versus impromidine ([1]; guinea-pig atrium, 5-methylimidazole of impromidine replaced by phenyl): 4 fold; decrease in H2-activity, gastric fundus, versus impromidine ([2]; gastric fundus, 5-methylimidazole of impromidine replaced by phenyl): 8 fold
15 | CN(C)CCCSC(=N)N [dimaprit, reference compound] | – | – | – | – | – | – | – | – | effect on resting state and histamine induced contractions of the trachea ([6]; up to 10^-3 M): neither effect on the resting state of the organ nor on the histamine induced contractions
